Values of other authors in patent US20260102363A1, “TREATMENT METHOD AND ANTIFUNGAL COMPOSITION” (MOBERG PHARMA AB, priority 2020, published 2026).
Counter-ions that a name gives are not always drawn. Like-named read-outs stand apart in the source and are kept apart here.

Tests used:
[1] = system: DSO
[2] = system: onychomycosis
[3] = Study 1 of the prescribing information
[4] = Study 2 of the prescribing information
[5] = single reported study, hydrochloride

Compound	Complete Cure (%) [1, 3]	Mycological Cure (%) [1, 3]	Complete Cure (%) [1, 4]	Mycological Cure (%) [1, 4]	Complete Cure (%) ([1]; single reported study)	Mycological Cure (%) ([1]; single reported study)	other results
C=C1CCN([C@H](C)[C@](O)(Cn2cncn2)c2ccc(F)cc2F)CC1 [Efinaconazole (JUBLIA ®), efinaconazole]	15.2%	53.4%	17.8%	55.2%			
CN(C/C=C/C#CC(C)(C)C)Cc1cccc2ccccc12 [Terbinafine (oral) (LAMISIL ®), terbinafine hydrochloride]							Complete Cure (%) [1, 5]: 38%; Mycological Cure (%) [1, 5]: 70%; mycological cure rate ([2]; after 12 weeks): ~15%; mycological cure rate ([2]; at 24 weeks): ~40%; mycological cure rate ([2]; at week 48/52): ~70%
CN(C/C=C/C#CC(C)(C)C)Cc1cccc2ccccc12 [Terbinafine (P3058), Terbinafine]					5.7%	20.4%	
Cc1cc(C2CCCCC2)n(O)c(=O)c1 [Ciclopirox (Penlac ®), ciclopirox]	5.5%	29%	8.5%	36%			
N#C/C(=C1/SC[C@@H](c2ccc(Cl)cc2Cl)S1)n1ccnc1 [Luliconazole]					14.9%	45.4%	
OB1OCc2cc(F)ccc21 [Tavaborole (KERYDIN ®), tavaborole]	6.5%	31%	9.1%	35.9%			
